Assay results: patent US4680285A, “Treatment of malignant tumors with 2-(β-D-ribofuranosylthiazole-4-carboxamide related compounds” (priority 1985, dated 1987)
“Also recorded” adds a separate entry of the source.

Key:
[1] = tested on: P388 lymphocytic leukemia; assay: P388 lymphocytic leukemia in vivo, median survival, 30-day test (Examples 7 and 8); set-up: species or system CD2 F1 female mice
Procedure: For examples 7 and 8, CD2 F1 female mice were used and challenged with P388 lymphocytic leukemia tumors. […] The test period was for thirty days in both Examples 7 and 8.
For Examples 7 and 8, as well as Examples 9 and 10 below, any animal of the drug treated group which survived beyond the end of the testing period was then evaluated and placed in one of three groups. The first group was designated as cured, meaning the animal was successfully cured of the tumor. The second group designation was no-takes, meaning survival of the animal was considered to be due to failure of tumor implant. The remaining group was designated as tumor survivors meaning the animals lived beyond the test cut-off date but could not be classified as either cured or no-takes.
For both Examples 7 and 8, thirty animals were used as the control group and six animals each were used at each dose level indicated in tables 3 and 4 below in the drug treated groups. In both Examples 7 and 8, for both the control group and the drug treated groups, tumors were induced by IP inoculation of tumor seed cells on day zero followed by initiation of drug treatment on day one. For both Examples 7a and 8, saline with tween/80 was used as the drug vehicle. For Examples 7b and 7c, water was used as the drug vehicle.
In both the control group and the drug treated group in Examples 7 and 8, the test animals were inoculated on day zero IP with 10^6 seed cells of P388 lymphocytic leukemia. In both Examples 7 and 8, treatment of the drug group was started on day one and the drug was given IP once daily for nine days. Day six was utilized as the cut-off data for death attributable to toxicity of the drug. […] Efficacy of treatment was determined by comparing median survival time of the drug treated animals compared to median survival time of the control animals, and is expressed as percentage increase of treated animals/control animals (T/C) as per Example 5.
In this example drug treated animals were injected IP with the dose level noted in Table 3 below. Six animals were treated at each dose level. No control animals survived beyond day 18 with a median death date of day 12.6.
This examples was performed as per Example 7a at dose levels as noted in table 3b below. A survivor at both the 700 and 800 mg/Kg level was judged as cured. No controls survived beyond day 12 and the mean death day of the control group was day 11.
This example was run as per Example 7a above at dose levels noted in Table 3c below. All controls were dead by day 14 with a mean death day of day 11.9. At the 500 mg/Kg level, one animal was judged as a cure.
Compound 2, 2-(2,3,5-tri-O-acetyl-β-D-ribofuranosyl)thiazole-4-carboxamide was tested as per Example 7a above at dose levels noted in Table 4 below. No controls survived beyond day 18 with an average death date of day 12.6.

L-1210 lymphoid leukemia = L-1210 lymphoid leukemia in vivo, mean survival, 30-day test (Example 9); set-up: species or system CD2 F1 male mice
From the text: For Example 9a and 9b, CD2 F1 male mice were used and challenged with L-1210 lymphoid leukemia. […] The test period was for thirty days. Test results are expressed as T/C as per Example 5.
In Example 9a, 24 control animals were used and six test animals at each drug dose level as is indicated below in table 9a. For both the control group and the drug test group, tumors were induced by IP inoculation of tumor seed cells on day zero followed by initiation of drug treatment on day one. For example 9a, water was used as the drug vehicle and for Examples 9b saline was used as the drug vehicle.
In both the control groups and the drug treated groups in Examples 9a and 9b, the test animals were inoculated on day zero IP with 10^6 seed cells of L-1210 lymphoid leukemia. For Example 9a, drug treatment was started on day one and compound 1 given once daily for nine days. Day five was utilized as the cutoff date for death attributable to toxicity of the drug. […] Efficacy of treatment was determined by comparing mean survival time of drug treated animals with mean survival time of the control animals and is expressed as percentage increase of treated animals/control animals (T/C) as per Example 5.
In this example, the drug treated animals were injected IP with dose levels noted in table 5a below. Six animals were treated at each dose level. No control animals survived beyond day ten with a mean death date of day 9.7.
In this example, drug treated animals were injected IP with the dose level noted in table 5b below. Ten animals were treated at each dose level. No control animals survived beyond day ten with a mean death date of day 9.0.

`NC(=O)c1csc([C@@H]2O[C@H](CO)[C@@H](O)[C@H]2O)n1` [Compound 1, 2-β-D-Ribofuranosylthiazole-4-Carboxamide] was tested, and the “Percent Treated Animals/Control Animals” value ([1]; Ex. 7a/8, saline with tween/80, 12.5 mg/Kg IP once daily x9) was 110%, the “Treated Group Survival Time (median)” value ([1]; Ex. 7a/8, saline with tween/80, 12.5 mg/Kg IP once daily x9, control 12.6) was 13.9 days and the “Percent Treated Animals/Control Animals” value ([1]; Ex. 7a/8, saline with tween/80, 25 mg/Kg IP once daily x9) was 113%. For the same molecule, the “Treated Group Survival Time (median)” value ([1]; Ex. 7a/8, saline with tween/80, 25 mg/Kg IP once daily x9, control 12.6) was 14.3 days, the “Percent Treated Animals/Control Animals” value ([1]; Ex. 7a/8, saline with tween/80, 50 mg/Kg IP once daily x9) was 121% and the “Treated Group Survival Time (median)” value ([1]; Ex. 7a/8, saline with tween/80, 50 mg/Kg IP once daily x9, control 12.6) was 15.3 days. The “Percent Treated Animals/Control Animals” value ([1]; Ex. 7a/8, saline with tween/80, 100 mg/Kg IP once daily x9) was 145%, the “Treated Group Survival Time (median)” value ([1]; Ex. 7a/8, saline with tween/80, 100 mg/Kg IP once daily x9, control 12.6) was 18.3 days and the “Percent Treated Animals/Control Animals” value ([1]; Ex. 7a/8, saline with tween/80, 200 mg/Kg IP once daily x9) was 150%. The “Treated Group Survival Time (median)” value ([1]; Ex. 7a/8, saline with tween/80, 200 mg/Kg IP once daily x9, control 12.6) was 19.0 days, the “Percent Treated Animals/Control Animals” value ([1]; Ex. 7a/8, saline with tween/80, 400 mg/Kg IP once daily x9) was 161% and the “Treated Group Survival Time (median)” value ([1]; Ex. 7a/8, saline with tween/80, 400 mg/Kg IP once daily x9, control 12.6) was 20.3 days. For the same molecule, the “surviving animals judged as no-take” value ([1]; Ex. 7a/8, 50 mg/Kg, thirty days) was “one drug treated animal survived and was judged as a no-take”, the “Percent Treated Animals/Control Animals” value ([1]; Ex. 7b, water, 300 mg/Kg IP once daily x9) was 198% and the “Treated Group Survival Time (median)” value ([1]; Ex. 7b, water, 300 mg/Kg IP once daily x9, control 11.0) was 21.8 days. For the same molecule, the “Percent Treated Animals/Control Animals” value ([1]; Ex. 7b, water, 400 mg/Kg IP once daily x9) was 224%, the “Treated Group Survival Time (median)” value ([1]; Ex. 7b, water, 400 mg/Kg IP once daily x9, control 11.0) was 24.7 days and the “Percent Treated Animals/Control Animals” value ([1]; Ex. 7b, water, 500 mg/Kg IP once daily x9) was 190%. The “Treated Group Survival Time (median)” value ([1]; Ex. 7b, water, 500 mg/Kg IP once daily x9, control 11.0) was 21.8 days, the “Percent Treated Animals/Control Animals” value ([1]; Ex. 7b, water, 600 mg/Kg IP once daily x9) was 234% and the “Treated Group Survival Time (median)” value ([1]; Ex. 7b, water, 600 mg/Kg IP once daily x9, control 11.0) was 25.8 days. The “Percent Treated Animals/Control Animals” value ([1]; Ex. 7b, water, 700 mg/Kg IP once daily x9) was 245%, the “Treated Group Survival Time (median)” value ([1]; Ex. 7b, water, 700 mg/Kg IP once daily x9, control 11.0) was 27.0 days and the “Percent Treated Animals/Control Animals” value ([1]; Ex. 7b, water, 800 mg/Kg IP once daily x9) was 245%. The “Treated Group Survival Time (median)” value ([1]; Ex. 7b, water, 800 mg/Kg IP once daily x9, control 11.0) was 27.0 days, the “survivors judged as cured” value ([1]; Ex. 7b, 700 mg/Kg, thirty days) was “A survivor” and the “survivors judged as cured” value ([1]; Ex. 7b, 800 mg/Kg, thirty days) was “A survivor”. The “Percent Treated Animals/Control Animals” value ([1]; Ex. 7c, water, 300 mg/Kg IP once daily x9) was 193%, the “Treated Group Survival Time (median)” value ([1]; Ex. 7c, water, 300 mg/Kg IP once daily x9, control 11.9) was 23.0 days and the “Percent Treated Animals/Control Animals” value ([1]; Ex. 7c, water, 400 mg/Kg IP once daily x9) was 201%. The “Treated Group Survival Time (median)” value ([1]; Ex. 7c, water, 400 mg/Kg IP once daily x9, control 11.9) was 24.0 days, the “Percent Treated Animals/Control Animals” value ([1]; Ex. 7c, water, 500 mg/Kg IP once daily x9) was 210% and the “Treated Group Survival Time (median)” value ([1]; Ex. 7c, water, 500 mg/Kg IP once daily x9, control 11.9) was 25.0 days. For the same molecule, the “Percent Treated Animals/Control Animals” value ([1]; Ex. 7c, water, 600 mg/Kg IP once daily x9) was 237%, the “Treated Group Survival Time (median)” value ([1]; Ex. 7c, water, 600 mg/Kg IP once daily x9, control 11.9) was 28.3 days and the “Percent Treated Animals/Control Animals” value ([1]; Ex. 7c, water, 700 mg/Kg IP once daily x9) was 86%. The “Treated Group Survival Time (median)” value ([1]; Ex. 7c, water, 700 mg/Kg IP once daily x9, control 11.9) was 10. day, the “Percent Treated Animals/Control Animals” value ([1]; Ex. 7c, water, 800 mg/Kg IP once daily x9) was 99% and the “Treated Group Survival Time (median)” value ([1]; Ex. 7c, water, 800 mg/Kg IP once daily x9, control 11.9) was 11.8 days. For the same molecule, the “animals judged as a cure” value ([1]; Ex. 7c, 500 mg/Kg, thirty days) was “one animal”, the “animal mortality attributed to drug toxicity” value ([1]; Example 7b, day six cut-off) was “only one instance” and the “activity against P388 lymphocytic leukemia” value ([1]; Examples 7 and 8, multiple dose) was “active antitumor agents; also recorded: active against P388 lymphocytic leukemia”. For the same molecule, the “DN 2 (Decision Network) criteria of the National Cancer Institute” value ([1]; P388) was “successfully passed”, the “Percent Treated Animals/Control Animals” value (L-1210 lymphoid leukemia; Ex. 9a, water, 25 mg/Kg IP once daily x9) was 131% and the “Treated Group Survival Time (mean)” value (L-1210 lymphoid leukemia; Ex. 9a, water, 25 mg/Kg IP once daily x9, control 9.7) was 12.8 days. The “Percent Treated Animals/Control Animals” value (L-1210 lymphoid leukemia; Ex. 9a, water, 50 mg/Kg IP once daily x9) was 136%, the “Treated Group Survival Time (mean)” value (L-1210 lymphoid leukemia; Ex. 9a, water, 50 mg/Kg IP once daily x9, control 9.7) was 13.2 days and the “Percent Treated Animals/Control Animals” value (L-1210 lymphoid leukemia; Ex. 9a, water, 100 mg/Kg IP once daily x9) was 144%. The “Treated Group Survival Time (mean)” value (L-1210 lymphoid leukemia; Ex. 9a, water, 100 mg/Kg IP once daily x9, control 9.7) was 14.0 days, the “Percent Treated Animals/Control Animals” value (L-1210 lymphoid leukemia; Ex. 9a, water, 200 mg/Kg IP once daily x9) was 157% and the “Treated Group Survival Time (mean)” value (L-1210 lymphoid leukemia; Ex. 9a, water, 200 mg/Kg IP once daily x9, control 9.7) was 15.3 days. The “Percent Treated Animals/Control Animals” value (L-1210 lymphoid leukemia; Ex. 9a, water, 400 mg/Kg IP once daily x9) was 192%, the “Treated Group Survival Time (mean)” value (L-1210 lymphoid leukemia; Ex. 9a, water, 400 mg/Kg IP once daily x9, control 9.7) was 18.7 days and the “Percent Treated Animals/Control Animals” value (L-1210 lymphoid leukemia; Ex. 9b, saline, 100 mg/Kg IP) was 183%. The “Treated Group Survival Time (mean)” value (L-1210 lymphoid leukemia; Ex. 9b, saline, 100 mg/Kg IP, control 9.0) was 16.5 days, the “Percent Treated Animals/Control Animals” value (L-1210 lymphoid leukemia; Ex. 9b, saline, 200 mg/Kg IP) was 182% and the “Treated Group Survival Time (mean)” value (L-1210 lymphoid leukemia; Ex. 9b, saline, 200 mg/Kg IP, control 9.0) was 16.4 days. For the same molecule, the “Percent Treated Animals/Control Animals” value (L-1210 lymphoid leukemia; Ex. 9b, saline, 400 mg/Kg IP) was 224%, the “Treated Group Survival Time (mean)” value (L-1210 lymphoid leukemia; Ex. 9b, saline, 400 mg/Kg IP, control 9.0) was 20.2 days and the “Percent Treated Animals/Control Animals” value (L-1210 lymphoid leukemia; Ex. 9b, saline, 600 mg/Kg IP) was 230%. The “Treated Group Survival Time (mean)” value (L-1210 lymphoid leukemia; Ex. 9b, saline, 600 mg/Kg IP, control 9.0) was 20.7 days, the “Percent Treated Animals/Control Animals” value (L-1210 lymphoid leukemia; Ex. 9b, saline, 800 mg/Kg IP) was 171% and the “Treated Group Survival Time (mean)” value (L-1210 lymphoid leukemia; Ex. 9b, saline, 800 mg/Kg IP, control 9.0) was 15.4 days. For the same molecule, the “activity against L-1210 lymphoid leukemia” value (L-1210 lymphoid leukemia; Example 9) was “active against L-1210 lymphoid leukemia”, the “mortality attributed to drug toxicity” value (L-1210 lymphoid leukemia; Example 9b, day five cut-off) was “only one instance” and the “DN 2 criteria of the National Cancer Institute” value (L-1210 lymphoid leukemia; L-1210) was “successfully passed”.
